Measured values as given in EP1149106B1, “4,5-AZOLO-OXINDOLES” (F. HOFFMANN-LA ROCHE AG, priority 1998, dated 2000).

Target: T1, Cyclin E/CDK2 (Homo sapiens, UniProt P24941)
T1 construct: made in house; host or cells: insect cells
Test: CDK2 FlashPlate Assay (Rb phosphorylation, 33P-ATP)
Format: biochemical
Conditions: for IC50: recombinant human Cyclin E/CDK2, Rb substrate, 25 minutes at room temperature; for inhibition at 0.5 µM: Concentration 0.5 µM
Experimental: To determine inhibition of CDK2 activity, purified recombinant retinoblastoma (Rb) protein was coated on 96 well FlashPlates (New England Nuclear, Boston, MA). Rb is a natural substrate for phosphorylation by CDK2 (Herwig and Strauss Eurr. J. Biochem., Vol. 246 (1997) pp. 581-601 and references therein). Recombinant active human Cyclin E/CDK2 complexes were partially purified from extracts of insect cells. The active Cyclin E/CDK2 was added to the Rb-coated FlashPlates along with ^33P-ATP and dilutions of test compounds. Plates were incubated for 25 minutes at room temperature with shaking, then washed and counted in the Topcount scintillation counter (Packard Instrument Co., Downers Grove, IL). Dilutions of test compounds were tested in duplicate in each assay. The percent inhibition of Rb phosphorylation, which is a measure of the inhibition of CDK2 activity, was determined according to the following formula: [formula] where "test compound" refers to the average counts per minute of the test duplicates, "nonspecific" refers to the average counts per minute when no Cyclin E/CDK2 was added, and "total" refers to the average counts per minute when no compound was added.

IC50 [µM]	Compound	inhibition at 0.5 µM [%]
< 3.5	COc1cc[nH]c1/C=C1\C(=O)Nc2ccc3[nH]c(NC(C)c4ccccc4)nc3c21 (racemic) [HH, rac-(Z)-8-[(3-Methoxy-1H-pyrrol-2-yl)methylene]-2-[N-(1-phenylethyl)amino]-3,6,7,8-tetrahydro-pyrrolo[3,2-e]benzimidazol-7-one]	
< 3.5	COc1cc[nH]c1/C=C1\C(=O)Nc2ccc3[nH]c(C(O)c4ccccc4)nc3c21 (racemic) [U, rac-(Z)-2-(1-Hydroxy-1-phenyl-methyl)-8-[(3-methoxy-1H-pyrrol-2-yl)methylene]-3,6,7,8-tetrahydro-pyrrolo[3,2-e]benzimidazol-7-one]	
	COc1cc[nH]c1/C=C1\C(=O)Nc2ccc3[nH]c(Nc4cccc(C(C)=O)c4)nc3c21 [BB, (Z)-2-[N-(3-Acetylphenyl)amino]-8-[(3-methoxy-1H-pyrrol-2-yl)methylene]-3,6,7,8-tetrahydro-pyrrolo[3,2-e]benzimidazol-7-one]	< 50
	CCOC(=O)c1ccc(Nc2nc3c4c(ccc3[nH]2)NC(=O)/C4=C\c2[nH]ccc2OC)cc1 [CC, (Z)-4-[[8-[(3-Methoxy-1H-pyrrol-2-yl)methylene]-7-oxo-3,6,7,8-tetrahydro-imidazo[4,5-e]indol-2-yl]amino]-benzoic acid ethyl ester]	< 50
< 3.5	COc1cc[nH]c1/C=C1\C(=O)Nc2ccc3[nH]c(Nc4ccc(N(C)C)cc4)nc3c21 [DD, (Z)-2-[N-(4-Dimethylaminophenyl)amino]-8-[(3-methoxy-1H-pyrrol-2-yl)methylene]-3,6,7,8-tetrahydro-pyrrolo[3,2-e]-benzimidazol-7-one]	
	COC(=O)c1ccc(Nc2nc3c4c(ccc3[nH]2)NC(=O)/C4=C\c2[nH]ccc2OC)cc1 [EE, (Z)-4-[[8-[(3-Methoxy-1H-pyrrol-2-yl)methylene]-7-oxo-3,6,7,8-tetrahydro-imidazo[4,5-e]indol-2-yl]amino]-benzoic acid methyl ester]	< 50
	COc1ccc(CCNc2nc3c4c(ccc3[nH]2)NC(=O)/C4=C\c2[nH]ccc2OC)cc1OC [GG, (Z)-2-[N-[2-(3,4-Dimethoxyphenyl)ethyl]amino]-8-[(3-methoxy-1H-pyrrol-2-yl)methylene]-3,6,7,8-tetrahydro-pyrrolo[3,2-e]-benzimidazol-7-one]	< 50
	COc1ccccc1Nc1nc2c3c(ccc2[nH]1)NC(=O)/C3=C\c1[nH]ccc1OC [II, (Z)-2-[N-(2-Methoxyphenyl)amino]-8-[(3-methoxy-1H-pyrrol-2-yl)methylene]-3,6,7,8-tetrahydro-pyrrolo[3,2-e]benzimidazol-7-one]	< 50
	COc1cc[nH]c1/C=C1\C(=O)Nc2ccc3[nH]c(NCCCCc4ccccc4)nc3c21 [JJ, (Z)-8-[(3-Methoxy-1H-pyrrol-2-yl)methylene]-2-[N-(4-phenylbutyl)amino]-3,6,7,8-tetrahydro-pyrrolo[3,2-e]benzimidazol-7-one]	< 50
< 3.5	COc1cc[nH]c1/C=C1\C(=O)Nc2ccc3[nH]c(NCC4CCCO4)nc3c21 (centres unmarked) [KK, (Z)-8-[(3-Methoxy-1H-pyrrol-2-yl)methylene]-2-[N-[(2-tetrahydrofuranyl)methyl]-amino]-3,6,7,8-tetrahydro-pyrrolo[3,2-e] benzimidazol-7-one]	
< 3.5	O=C1Nc2ccc3[nH]c(-c4ccccc4)nc3c2/C1=C/c1ccc[nH]1 [O, (Z)-2-Phenyl-8-[(1H-pyrrol-2-yl)methylene]-3,6,7,8-tetrahydro-pyrrolo[3,2-e]benzimidazol-7-one]	
< 3.5	Cc1nc[nH]c1/C=C1\C(=O)Nc2ccc([N+](=O)[O-])c(F)c21 [OO, (Z)-1,3-Dihydro-4-fluoro-3-[(4-methyl-1H-imidazol-5-yl)methylene]-5-nitro-2H-indol-2-one]	
< 3.5	Cc1nc[nH]c1/C=C1\C(=O)Nc2ccc([N+](=O)[O-])c(N=[N+]=[N-])c21 [PP, (Z)-4-Azido-1,3-dihydro-3-[(4-methyl-1H-imidazol-5-yl)methylene]-5-nitro-2H-indol-2-one]	
< 3.5	COc1cc[nH]c1/C=C1\C(=O)Nc2ccc3[nH]c(-c4ccccc4)nc3c21 [Q, (Z)-8-[(3-Methoxy-1H-pyrrol-2-yl)methylene]-2-phenyl-3,6,7,8-tatrahydro-pyrrolo[3,2-e]benzimidazol-7-one]	
< 3.5	Cc1nc[nH]c1/C=C1\C(=O)Nc2ccc([N+](=O)[O-])c(N)c21 [QQ, (Z)-4-Amino-1,3-dihydro-3-[(4-methyl-1H-imidazol-5-yl)methylene]-5-nitro-2H-indol-2-one]	
< 3.5	Cc1nc[nH]c1/C=C1\C(=O)Nc2ccc(N)c(N)c21 [RR, (Z)-4,5-Diamino-1,3-dihydro-3-[(4-methyl-1H-imidazol-5-yl)methylene]-2H-indol-2-one]	
< 3.5	COc1cc[nH]c1/C=C1\C(=O)Nc2ccc3[nH]c(-c4ccccc4O)nc3c21 [S, (Z)-2-(2-Hydroxyphenyl)-8-[(3-methoxy-1H-pyrrol-2-yl)methylene]-3,6,7,8-tetrahydro-pyrrolo[3;2-e]benzimidazol-7-one]	
< 3.5	COc1ccc(Cc2nc3c4c(ccc3[nH]2)NC(=O)/C4=C\c2[nH]ccc2OC)cc1 [T, (Z)-2-[(4-Methoxyphenyl)methyl]-8-[(3-methoxy-1H-pyrrol-2-yl)methylene]-3,6,7,8-tetrahydro-pyrrolo[3,2-e]benzimidazol-7-one]	
< 3.5	COc1cc[nH]c1/C=C1\C(=O)Nc2ccc3nc[nH]c3c21 [TT, (Z)-8-[(3-Methoxy-1H-pyrrol-2-yl)methylene]-3,6,7,8-tetrahydro-pyrrolo-[3,2-e]benzimidazol-7-one]	
< 3.5	COc1cc[nH]c1/C=C1\C(=O)Nc2ccc3[nH]c(CCc4ccc(O)cc4)nc3c21 [V, (Z)-2-[2-(4-Hydroxyphenyl)ethyl]-8-[(3-methoxy-1H-pyrrol-2-yl)methylene]-3,6,7,8-tetrahydro-pyrrolo[3,2-e]benzimidazol-7-one]	
	COc1cc[nH]c1/C=C1\C(=O)Nc2ccc3[nH]c(NCc4ccc5c(c4)OCO5)nc3c21 [VV, (Z)-2-[N-(1,3-Benzodioxol-5-yl)methylamino]-8-[(3-methoxy-1H-pyrrol-2-yl)methylene]-3,6,7,8-tetrahydro-pyrrolo[3,2-e]-benzimidazol-7-one]	< 50
< 3.5	COc1cc[nH]c1/C=C1\C(=O)Nc2ccc3[nH]c(CCCc4ccccc4)nc3c21 [W, (Z)-2-[3-(Phenyl)propyl]-8-[(3-methoxy-1H-pyrrol-2-yl)methylene]-3,6,7,8-tetrahydro-pyrrolo[3,2-e]benzimidazol-7-one]	
	COc1cc[nH]c1/C=C1\C(=O)Nc2ccc3[nH]c(NCc4cccc5ccccc45)nc3c21 [WW, (Z)-8-[(3-Methoxy-1H-pyrrol-2-yl)methylene]-2-[N-(1-naphthalenyl)methylamino]-3,6,7,8-tetrahydro-pyrrolo[3,2-e]-benzimidazol-7-one]	< 50
< 3.5	COCCCNc1nc2c3c(ccc2[nH]1)NC(=O)/C3=C\c1[nH]ccc1OC [X, (Z)-2-[N-(3-Methoxypropyl)amino]-8-[(3-methoxy-1H-pyrrol-2-yl)methylene]-3,6,7,8-tetrahydro-pyrrolo[3,2-e]benzimidazol-7-one]	
	COc1cc[nH]c1/C=C1\C(=O)Nc2ccc3[nH]c(NCCCc4ccccc4)nc3c21 [XX, (Z)-8-[(3-Methoxy-1H-pyrrol-2-yl)methylene]-2-[N-(3-phenylpropyl)amino]-3,6,7,8-tetrahydro-pyrrolo[3,2-e]benzimidazol-7-one]	< 50
	COc1ccc(Nc2nc3c4c(ccc3[nH]2)NC(=O)/C4=C\c2[nH]ccc2OC)cc1OC [Y, (Z)-2-[N-(3,4-Dimethoxyphenyl)amino]-8-[(3-methoxy-1H-pyrrol-2-yl)methylene]-3,6,7,8-tetrahydro-pyrrolo[3,2-e]benzimidazol-7-one]	< 50
	COc1cc[nH]c1/C=C1\C(=O)Nc2ccc3[nH]c(Nc4ccc5c(c4)CCC5)nc3c21 [YY, (Z)-2-[N-(2,3-Dihydro-1H-inden-5-yl)amino]-8-[(3-methoxy-1H-pyrrol-2-yl)methylene]-3,6,7,8-tetrahydro-pyrrolo[3,2-e]-benzimidazol-7-one]	< 50
	COc1ccc(Nc2nc3c4c(ccc3[nH]2)NC(=O)/C4=C\c2[nH]ccc2OC)cc1 [Z, (Z)-2-[N-(4-Methoxyphenyl)amino]-8-[(3-methoxy-1H-pyrrol-2-yl)methylene]-3,6,7,8-tetrahydro-pyrrolo[3,2-e]benzimidazol-7-one]	< 50

Compound	IC50 [µM]	inhibition at 0.5 µM [%]
Cc1nc[nH]c1/C=C1\C(=O)Nc2ccc3[nH]cnc3c21 [SS]	< 3.5	
